Laboratory results reported in the kinase profiling compilation of Christmann-Franck et al. (2016).

Key:
Experiment in all cases: radiometric filter-binding kinase assay, Kinaseprofiler
[1] = system: AKT3 (human), Q9Y243 [S472D]; conditions: compound 1.0 µM; ATP 45 µM
[2] = biological target: STK17A (human) (UniProt Q9UEE5); conditions: compound 1.0 µM; ATP 10 µM
[3] = biological target: STK10 (human) (UniProt O94804); conditions: compound 1.0 µM; ATP 200 µM
[4] = biological target: PRKD1 (human) (UniProt Q15139); conditions: compound 1.0 µM; ATP 45 µM
[5] = biological target: STK4 (human) (UniProt Q13043); conditions: compound 1.0 µM; ATP 90 µM
STK4 (human), sequence (Q13043 whole entry, looked up): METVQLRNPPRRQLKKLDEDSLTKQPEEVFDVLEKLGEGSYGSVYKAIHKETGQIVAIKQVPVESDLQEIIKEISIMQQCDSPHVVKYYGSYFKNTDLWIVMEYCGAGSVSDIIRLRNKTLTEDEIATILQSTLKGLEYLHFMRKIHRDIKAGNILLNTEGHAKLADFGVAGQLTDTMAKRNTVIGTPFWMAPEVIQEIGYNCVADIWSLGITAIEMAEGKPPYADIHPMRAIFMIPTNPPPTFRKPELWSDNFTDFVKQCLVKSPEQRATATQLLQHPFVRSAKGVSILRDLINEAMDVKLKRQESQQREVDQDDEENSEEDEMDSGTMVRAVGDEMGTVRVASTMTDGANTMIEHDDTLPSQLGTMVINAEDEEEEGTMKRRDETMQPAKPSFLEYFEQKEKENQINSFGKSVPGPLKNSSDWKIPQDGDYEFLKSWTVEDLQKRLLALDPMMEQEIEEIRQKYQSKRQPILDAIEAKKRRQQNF

[6] = system: FLT3 (human), P36888 [D835Y]; conditions: compound 1.0 µM; ATP 200 µM
[7] = biological target: HIPK1 (human) (UniProt Q86Z02); conditions: compound 1.0 µM; ATP 45 µM
[8] = biological target: CDK7 CCNH MNAT1 (human) (UniProt P50613+P51948+P51946); conditions: compound 1.0 µM; ATP 90 µM
[9] = biological target: STK3 (human) (UniProt Q13188); conditions: compound 1.0 µM; ATP 155 µM
[10] = biological target: CAMK4 (human) (UniProt Q16566); conditions: compound 1.0 µM; ATP 10 µM
CAMK4 (human), sequence (Q16566 whole entry, looked up): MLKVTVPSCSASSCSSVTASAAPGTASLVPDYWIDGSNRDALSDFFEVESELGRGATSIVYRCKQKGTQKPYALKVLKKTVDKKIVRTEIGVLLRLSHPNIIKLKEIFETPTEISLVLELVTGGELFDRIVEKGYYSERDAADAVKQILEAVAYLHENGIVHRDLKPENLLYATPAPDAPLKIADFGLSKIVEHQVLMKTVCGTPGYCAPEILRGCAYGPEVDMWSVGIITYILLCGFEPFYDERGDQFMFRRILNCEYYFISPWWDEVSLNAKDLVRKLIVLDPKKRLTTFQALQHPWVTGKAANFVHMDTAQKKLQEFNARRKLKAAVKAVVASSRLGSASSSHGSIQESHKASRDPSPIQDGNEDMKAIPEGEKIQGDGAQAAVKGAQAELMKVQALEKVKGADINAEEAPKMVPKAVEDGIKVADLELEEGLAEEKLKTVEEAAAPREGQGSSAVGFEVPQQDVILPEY

[11] = biological target: MAP2K6 (human) (UniProt P52564); conditions: compound 1.0 µM; ATP 10 µM
[12] = biological target: EPHB3 (human) (UniProt P54753); conditions: compound 1.0 µM; ATP 90 µM
EPHB3 (human), sequence (P54753 whole entry, looked up): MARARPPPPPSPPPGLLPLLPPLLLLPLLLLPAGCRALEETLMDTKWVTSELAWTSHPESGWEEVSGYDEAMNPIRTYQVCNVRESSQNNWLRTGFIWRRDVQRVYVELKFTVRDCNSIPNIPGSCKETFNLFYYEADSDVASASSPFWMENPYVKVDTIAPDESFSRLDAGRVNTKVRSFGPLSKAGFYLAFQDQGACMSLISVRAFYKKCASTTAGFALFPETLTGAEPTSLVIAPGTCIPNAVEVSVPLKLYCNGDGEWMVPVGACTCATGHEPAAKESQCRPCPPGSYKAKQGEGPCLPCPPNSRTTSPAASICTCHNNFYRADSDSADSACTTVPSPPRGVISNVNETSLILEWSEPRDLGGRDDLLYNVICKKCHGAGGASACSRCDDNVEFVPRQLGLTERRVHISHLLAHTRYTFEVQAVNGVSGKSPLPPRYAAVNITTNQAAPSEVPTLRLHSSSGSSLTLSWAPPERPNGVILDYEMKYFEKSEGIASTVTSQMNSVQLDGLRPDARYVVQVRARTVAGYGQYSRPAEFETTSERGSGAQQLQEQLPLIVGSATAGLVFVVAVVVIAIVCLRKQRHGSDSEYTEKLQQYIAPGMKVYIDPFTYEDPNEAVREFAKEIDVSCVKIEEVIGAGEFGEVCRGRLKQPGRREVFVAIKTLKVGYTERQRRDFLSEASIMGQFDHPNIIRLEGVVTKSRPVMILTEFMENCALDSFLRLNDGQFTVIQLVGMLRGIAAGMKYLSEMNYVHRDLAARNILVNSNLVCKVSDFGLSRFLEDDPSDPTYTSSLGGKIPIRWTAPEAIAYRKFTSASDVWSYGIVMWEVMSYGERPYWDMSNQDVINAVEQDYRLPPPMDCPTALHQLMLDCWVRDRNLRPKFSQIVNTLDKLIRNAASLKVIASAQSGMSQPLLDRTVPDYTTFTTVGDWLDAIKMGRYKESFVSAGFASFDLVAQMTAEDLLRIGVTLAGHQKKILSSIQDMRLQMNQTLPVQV

[13] = biological target: CDC42BPB (human) (UniProt Q9Y5S2); conditions: compound 1.0 µM; ATP 10 µM
[14] = system: RAF1 (human), P04049 [Y340D/Y341D]; conditions: compound 1.0 µM; ATP 45 µM
[15] = biological target: YES1 (human) (UniProt P07947); conditions: compound 1.0 µM; ATP 45 µM
[16] = system: EPHB2 (human), P29323 [A848S/K918E]; conditions: compound 1.0 µM; ATP 10 µM
[17] = biological target: HIPK3 (human) (UniProt Q9H422); conditions: compound 1.0 µM; ATP 15 µM
[18] = biological target: MAP3K5 (human) (UniProt Q99683); conditions: compound 1.0 µM; ATP 200 µM
[19] = biological target: NEK2 (human) (UniProt P51955); conditions: compound 1.0 µM; ATP 120 µM
[20] = system: BLK (human), P51451 [M278V]; conditions: compound 1.0 µM; ATP 45 µM
[21] = biological target: MINK1 (human) (UniProt Q8N4C8); conditions: compound 1.0 µM; ATP 185 µM
[22] = biological target: EPHA7 (human) (UniProt Q15375); conditions: compound 1.0 µM; ATP 90 µM
EPHA7 (human), sequence (Q15375 whole entry, looked up): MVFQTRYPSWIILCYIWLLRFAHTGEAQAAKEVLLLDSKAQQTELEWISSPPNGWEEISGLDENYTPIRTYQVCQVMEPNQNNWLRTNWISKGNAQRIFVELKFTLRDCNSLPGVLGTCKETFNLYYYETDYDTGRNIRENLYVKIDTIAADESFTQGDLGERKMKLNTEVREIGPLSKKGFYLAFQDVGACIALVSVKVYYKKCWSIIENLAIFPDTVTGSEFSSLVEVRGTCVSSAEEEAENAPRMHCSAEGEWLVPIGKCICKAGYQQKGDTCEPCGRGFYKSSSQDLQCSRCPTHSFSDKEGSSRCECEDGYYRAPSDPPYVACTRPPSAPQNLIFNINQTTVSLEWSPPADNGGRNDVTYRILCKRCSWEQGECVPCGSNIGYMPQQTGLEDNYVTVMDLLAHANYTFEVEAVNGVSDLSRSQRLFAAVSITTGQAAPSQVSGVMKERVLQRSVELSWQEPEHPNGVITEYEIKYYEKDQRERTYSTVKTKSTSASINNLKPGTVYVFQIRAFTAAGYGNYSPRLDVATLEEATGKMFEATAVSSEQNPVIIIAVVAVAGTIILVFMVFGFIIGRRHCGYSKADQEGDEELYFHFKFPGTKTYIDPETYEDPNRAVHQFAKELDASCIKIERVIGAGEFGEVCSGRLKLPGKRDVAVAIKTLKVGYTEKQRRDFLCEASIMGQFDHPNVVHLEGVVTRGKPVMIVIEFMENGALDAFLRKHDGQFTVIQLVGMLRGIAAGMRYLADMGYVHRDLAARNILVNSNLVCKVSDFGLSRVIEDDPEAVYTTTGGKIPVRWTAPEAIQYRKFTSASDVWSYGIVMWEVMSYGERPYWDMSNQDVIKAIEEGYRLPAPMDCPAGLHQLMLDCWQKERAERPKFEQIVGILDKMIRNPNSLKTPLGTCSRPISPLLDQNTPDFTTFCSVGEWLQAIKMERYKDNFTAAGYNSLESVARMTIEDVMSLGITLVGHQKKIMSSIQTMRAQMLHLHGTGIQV

[23] = biological target: STK24 (human) (UniProt Q9Y6E0); conditions: compound 1.0 µM; ATP 15 µM
STK24 (human), sequence (Q9Y6E0 whole entry, looked up): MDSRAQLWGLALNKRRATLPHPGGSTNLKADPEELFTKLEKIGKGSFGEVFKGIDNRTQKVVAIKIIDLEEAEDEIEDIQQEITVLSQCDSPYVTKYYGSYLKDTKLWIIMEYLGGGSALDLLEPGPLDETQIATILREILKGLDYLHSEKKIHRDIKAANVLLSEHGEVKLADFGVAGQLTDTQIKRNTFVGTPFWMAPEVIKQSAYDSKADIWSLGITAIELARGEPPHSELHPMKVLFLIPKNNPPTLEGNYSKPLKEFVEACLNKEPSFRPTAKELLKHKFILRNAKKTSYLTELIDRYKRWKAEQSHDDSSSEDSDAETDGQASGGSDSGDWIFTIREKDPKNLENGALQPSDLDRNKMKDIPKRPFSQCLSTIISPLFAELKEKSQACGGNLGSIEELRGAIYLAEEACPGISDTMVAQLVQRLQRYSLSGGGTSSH

[24] = biological target: CSK (human) (UniProt P41240); conditions: compound 1.0 µM; ATP 15 µM
[25] = system: HIPK2 (human), Q9H2X6 [I471N]; conditions: compound 1.0 µM; ATP 10 µM
[26] = biological target: RPS6KA2 KD1 KD2 (human) (UniProt Q15349); conditions: compound 1.0 µM; ATP 10 µM
[27] = biological target: PLK3 (human) (UniProt Q9H4B4); conditions: compound 1.0 µM; ATP 70 µM
[28] = biological target: RIPK2 (human) (UniProt O43353); conditions: compound 1.0 µM; ATP 120 µM
[29] = biological target: WNK3 (human) (UniProt Q9BYP7); conditions: compound 1.0 µM; ATP 200 µM
[30] = biological target: JAK2 JH1 catalytic (human) (UniProt O60674); conditions: compound 1.0 µM; ATP 45 µM
JAK2 JH1 catalytic (human), sequence (O60674 whole entry, looked up): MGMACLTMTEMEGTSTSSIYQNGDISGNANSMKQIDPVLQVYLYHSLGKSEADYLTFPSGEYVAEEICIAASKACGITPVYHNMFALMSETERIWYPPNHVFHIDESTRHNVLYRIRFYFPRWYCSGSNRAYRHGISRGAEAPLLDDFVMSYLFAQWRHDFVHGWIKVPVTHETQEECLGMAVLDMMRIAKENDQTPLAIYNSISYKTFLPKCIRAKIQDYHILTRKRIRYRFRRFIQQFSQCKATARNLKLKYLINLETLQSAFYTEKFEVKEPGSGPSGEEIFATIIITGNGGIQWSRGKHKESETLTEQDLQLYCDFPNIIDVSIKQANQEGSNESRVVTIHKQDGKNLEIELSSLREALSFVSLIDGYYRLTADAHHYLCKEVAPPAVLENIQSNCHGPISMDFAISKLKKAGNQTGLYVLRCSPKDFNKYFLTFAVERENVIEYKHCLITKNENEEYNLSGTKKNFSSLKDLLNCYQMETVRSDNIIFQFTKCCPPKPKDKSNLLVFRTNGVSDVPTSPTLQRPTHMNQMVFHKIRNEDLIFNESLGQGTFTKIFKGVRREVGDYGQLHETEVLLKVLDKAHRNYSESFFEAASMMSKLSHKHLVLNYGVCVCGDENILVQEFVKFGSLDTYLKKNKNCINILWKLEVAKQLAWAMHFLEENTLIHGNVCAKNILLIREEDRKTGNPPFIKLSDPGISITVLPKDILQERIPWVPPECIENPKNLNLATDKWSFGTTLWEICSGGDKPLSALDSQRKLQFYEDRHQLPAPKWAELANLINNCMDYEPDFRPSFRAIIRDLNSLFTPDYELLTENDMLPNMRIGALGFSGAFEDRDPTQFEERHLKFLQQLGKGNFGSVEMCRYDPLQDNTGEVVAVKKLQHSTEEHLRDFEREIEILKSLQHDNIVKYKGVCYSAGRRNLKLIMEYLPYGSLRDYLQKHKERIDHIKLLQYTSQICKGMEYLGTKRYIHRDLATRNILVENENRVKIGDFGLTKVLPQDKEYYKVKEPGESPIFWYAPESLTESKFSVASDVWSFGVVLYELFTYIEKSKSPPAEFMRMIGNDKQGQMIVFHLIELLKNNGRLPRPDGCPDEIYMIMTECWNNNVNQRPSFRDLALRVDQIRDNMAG

[31] = biological target: RET (human) (UniProt P07949); conditions: compound 1.0 µM; ATP 70 µM
[32] = biological target: FGFR3 (human) (UniProt P22607); conditions: compound 1.0 µM; ATP 15 µM
[33] = biological target: IGF1R (human) (UniProt P08069); conditions: compound 1.0 µM; ATP 200 µM
[34] = biological target: BMX (human) (UniProt P51813); conditions: compound 1.0 µM; ATP 45 µM
[35] = biological target: MELK (human) (UniProt Q14680); conditions: compound 1.0 µM; ATP 45 µM
[36] = biological target: MAPK8 (human) (UniProt P45983); conditions: compound 1.0 µM; ATP 45 µM
[37] = system: SGK1 (human), O00141 [S422D]; conditions: compound 1.0 µM; ATP 90 µM
[38] = biological target: NLK (human) (UniProt Q9UBE8); conditions: compound 1.0 µM; ATP 200 µM

AKT3 (human), Q9Y243 [S472D], sequence (Q9Y243 whole entry S472D, looked up): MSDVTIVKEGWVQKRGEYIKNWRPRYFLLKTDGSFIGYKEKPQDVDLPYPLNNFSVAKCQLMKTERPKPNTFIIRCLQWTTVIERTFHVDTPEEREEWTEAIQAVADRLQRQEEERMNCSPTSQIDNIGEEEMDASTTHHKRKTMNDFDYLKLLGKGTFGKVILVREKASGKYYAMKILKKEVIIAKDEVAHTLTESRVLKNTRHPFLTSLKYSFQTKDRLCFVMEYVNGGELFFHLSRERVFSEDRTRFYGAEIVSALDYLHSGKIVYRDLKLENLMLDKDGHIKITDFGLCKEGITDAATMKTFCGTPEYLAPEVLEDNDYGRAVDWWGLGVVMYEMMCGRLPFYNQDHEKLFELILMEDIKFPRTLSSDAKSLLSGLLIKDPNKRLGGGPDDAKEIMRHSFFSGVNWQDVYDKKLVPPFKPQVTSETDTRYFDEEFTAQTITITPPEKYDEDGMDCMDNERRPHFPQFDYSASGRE

Q: Which residual activity [1] does the source give for `CN(C)S(=O)(=O)Nc1ccc2ccc3ncc(-c4cnn(C)c4)cc3c(=O)c2c1` here?
A: 96%

Q: What about the residual activity [2] of the same molecule?
A: 0%

Q: And the residual activity [3]?
A: 78%

Q: What about the residual activity [4] of the same molecule?
A: 93%

Q: And the residual activity [5]?
A: 80%

Q: And the residual activity [6]?
A: 2%

Q: And the residual activity [7]?
A: 116%

Q: And the residual activity [8]?
A: 101%

Q: And the residual activity [9]?
A: 90%

Q: What about the residual activity [10] of the same molecule?
A: 98%

Q: What about the residual activity [11] of the same molecule?
A: 117%

Q: And the residual activity [12]?
A: 98%

Q: And the residual activity [13]?
A: 94%

Q: What about the residual activity [14] of the same molecule?
A: 72%

Q: And the residual activity [15]?
A: 71%

Q: What about the residual activity [16] of the same molecule?
A: 103%

Q: And the residual activity [17]?
A: 102%

Q: And the residual activity [18]?
A: 98%

Q: And the residual activity [19]?
A: 65%

Q: And the residual activity [20]?
A: 83%

Q: What about the residual activity [21] of the same molecule?
A: 105%

Q: What about the residual activity [22] of the same molecule?
A: 101%

Q: And the residual activity [23]?
A: 102%

Q: And the residual activity [24]?
A: 85%

Q: And the residual activity [25]?
A: 94%

Q: What about the residual activity [26] of the same molecule?
A: 66%

Q: What about the residual activity [27] of the same molecule?
A: 105%

Q: What about the residual activity [28] of the same molecule?
A: 35%

Q: What about the residual activity [29] of the same molecule?
A: 78%

Q: And the residual activity [30]?
A: 43%

Q: What about the residual activity [31] of the same molecule?
A: 2%

Q: What about the residual activity [32] of the same molecule?
A: 4%

Q: What about the residual activity [33] of the same molecule?
A: 101%

Q: What about the residual activity [34] of the same molecule?
A: 73%

Q: What about the residual activity [35] of the same molecule?
A: 38%

Q: What about the residual activity [36] of the same molecule?
A: 98%

Q: What about the residual activity [37] of the same molecule?
A: 96%

Q: And the residual activity [38]?
A: 103%
